Experimental data: patent US20030228642A1, “Crohn's disease treatment and efficacy prediction methods” (priority 2002, published 2003)

Key:
[1] = test system: M. para. isolated from resected tissue of CD patients; experiment: in vitro test of seven antituberculosis drugs against M. para. (Bactec system); assay type: cell-based, Mycobacterium paratuberculosis; parameters: key to Status: R, resistant; S, sensitive; details: for IC99.9: 99.9% M. para. cells inhibited or killed, Bactec system, combinations given as drug:drug, read-out: MIC99.9; for Status: M. para. resistant or sensitive to the drug
Crohn's disease [2] = details: cited from earlier work
Crohn's disease [3] = experiment: comparison of age-matched MAP-positive and MAP-negative patients at 1 year (CDAI); assay type: in vivo, human; details: patients unresponsive to antibiotics, MAP-negative group
Excerpt: Another study was undertaken to compare age-matched MAP-positive and -negative patients utilizing ELISA analysis for serum antibodies to MAP. 10 MAP-positive and 10 MAP-negative patients were compared at 1 year, utilizing the CDAI score as a primary endpoint. The elimination of corticosteroids and the need for immunotherapy were considered secondary endpoints. The MAP-positive patients achieved complete remission in 9 out of the 10 cases, with entry CDAI score of 285 and exit score of 111. Steroids were eliminated in 8 of 10 patients, with 2 patients requiring low-dose steroids. In the MAP-negative group at 1 year, 6 of 10 patients were in complete remission, with an entry CDAI score of 308 and an exit score of 179. Of the responsive patients, 3 of 6 required additional immunotherapy, and 3 remained on antibiotics alone.

Row | Molecule | IC99.9 [1] | Status [1] | benefit of every 8-week administration (Crohn's disease [2]; over 550 patients with CD, preliminary trial results) | complications of the immunosuppresive effects (Crohn's disease [2]; patients treated for CD and rheumatoid arthritis) | induction of remission (Crohn's disease [3])
1 | CC[C@H]1OC(=O)[C@H](C)[C@@H](O[C@H]2C[C@@](C)(OC)[C@@H](O)[C@H](C)O2)[C@H](C)[C@@H](O[C@@H]2O[C@H](C)C[C@H](N(C)C)[C@H]2O)[C@](C)(OC)C[C@@H](C)C(=O)[C@H](C)[C@@H](O)[C@]1(C)O [CLR, clarithromycin] | < 1.25 µg/mL | S |  |  | 
2 | CC[C@@H](CO)NCCN[C@@H](CC)CO [EMB, ethambutol] | < 3 µg/mL | S |  |  | 
3 | NNC(=O)c1ccncc1 [INH, isoniazid] | > 20 µg/mL | R |  |  | 
4 | NC[C@H]1O[C@H](O[C@H]2[C@H](O)[C@@H](O[C@H]3O[C@H](CO)[C@@H](O)[C@H](N)[C@H]3O)[C@H](N)C[C@@H]2N)[C@H](O)[C@@H](O)[C@@H]1O [KM, kanamycin] | < 3 µg/mL | R |  |  | 
5 | NC(=O)c1cnccn1 [PZA, pyrazinamide] | > 20 µg/mL | R |  |  | 
6 | CO[C@H]1/C=C/O[C@@]2(C)Oc3c(C)c(O)c4c(O)c(c(/C=N/N5CCN(C)CC5)c(O)c4c3C2=O)NC(=O)/C(C)=C\C=C\[C@H](C)[C@H](O)[C@@H](C)[C@@H](O)[C@@H](C)[C@H](OC(C)=O)[C@@H]1C [RIF, Rifampicin] | > 2.6 µg/mL | R |  |  | 
7 | [H]/N=C(/N)N[C@H]1[C@H](O)[C@@H](O)[C@H](O[C@@H]2O[C@@H](C)[C@](O)(C=O)[C@H]2O[C@@H]2O[C@@H](CO)[C@H](O)[C@@H](O)[C@@H]2NC)[C@@H](N/C(N)=N\[H])[C@@H]1O [ST, streptomycin] | > 3 µg/mL | R |  |  | 
8 | infliximab: a monoclonal chimeric antibody to tumor necrosis factor α (TNF-α) |  |  | maintenance of remission and improved quality of life | Documented cases of miliary tuberculosis | induction of remission in all patients
